# Source: patent publication US5025027A, “Cyclic carbamate analogues of (+)-pilocarpine” (Regents of the University of California, priority 1989, dated 1991)
# Key:
# [1] = cited from earlier work; for pharmacological activity (in words): products of lactone cleavage or epimerization of pilocarpine; for activity of pilocarpine analogues (in words): less active than pilocarpine
# [2] = target: T1, muscarinic receptors (Cavia porcellus, UniProt H0W1Z3); experiment: Guinea pig ileum bioassay (isotonic contractions); settings: for EC50 / potency compared with pilocarpine (in words) / muscarinic agonist activity (in words): guinea pig ileum; for EC50 / muscarinic agonist activity (in words): in vitro; for EC50: read-out: ED50 (the source's name); for potency compared with pilocarpine (in words): relative to pilocarpine; for contractions of guinea pig ileum (FIG. 1), in words: single doses, 9, 10, 8 in increasing order of potency
# T1 construct: a distal portion of guinea pig ileum was cut and a segment (1-1.5 cm) was tied at both ends; from tissue; host or cells: guinea pig distal ileum segment (isolated organ bath)
# Protocol: Guinea Pig Ileum Bioassay. Briefly, a distal portion of guinea pig ileum was cut and a segment (1-1.5 cm) was tied at both ends. One end was connected to a force displacement transducer and the other end to the muscle holder in a 5 ml organ bath. […] After the tissue was allowed to equilibrate for 45-60 minutes, single doses of agonists were administered into the bath and isotonic contractions were recorded on a Grass polygraph.
# [3] = cited from earlier work
# T1 sequence (H0W1Z3 1-590): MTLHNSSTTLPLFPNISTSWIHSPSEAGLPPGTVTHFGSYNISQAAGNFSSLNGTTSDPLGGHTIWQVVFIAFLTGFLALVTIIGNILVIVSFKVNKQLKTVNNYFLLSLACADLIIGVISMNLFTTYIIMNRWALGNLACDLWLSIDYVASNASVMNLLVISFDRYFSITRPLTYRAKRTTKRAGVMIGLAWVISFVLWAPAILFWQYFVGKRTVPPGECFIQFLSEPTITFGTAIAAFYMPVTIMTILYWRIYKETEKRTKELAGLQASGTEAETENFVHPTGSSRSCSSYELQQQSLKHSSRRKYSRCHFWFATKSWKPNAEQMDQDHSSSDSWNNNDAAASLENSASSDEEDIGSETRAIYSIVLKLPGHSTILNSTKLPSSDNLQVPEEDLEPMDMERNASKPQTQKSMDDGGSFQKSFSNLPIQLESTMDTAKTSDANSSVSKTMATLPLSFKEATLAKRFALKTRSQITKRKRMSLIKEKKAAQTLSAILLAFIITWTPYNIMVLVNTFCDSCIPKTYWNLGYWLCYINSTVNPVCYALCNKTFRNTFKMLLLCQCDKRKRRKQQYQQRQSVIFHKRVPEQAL
EC50 [2],potency compared with pilocarpine (in words) [2],"contractions of guinea pig ileum (FIG. 1), in words [2]",muscarinic agonist activity (in words) [2],SMILES,other results
–,–,–,–,CC[C@H](C(=O)O)[C@H](CO)Cc1cncn1C [pilocarpic acid],pharmacological activity (in words) [1]: essentially pharacologically inactive
1 µM,equipotent with pilocarpine,cholinergic muscarinic agonists,–,"CCN1C(=O)OC[C@@H]1Cc1cncn1C [Compound 8, (S)-3-Ethyl-4-(1'-methyl-5'-imidazolyl)methyl-2-oxazolidinone]",log concentration-response curves (in words) ([2]; pilocarpine and 8 compared): parallel log concentration-response curves
–,–,–,–,CC[C@@H]1C(=O)OC[C@@H]1Cc1cn(C)cn1 [neopilocarpine],activity of pilocarpine analogues (in words) [1]: less active
14 µM,less active,cholinergic muscarinic agonists,weaker muscarinic agonists,"CCN1C(=O)OC[C@@H]1Cc1cn(C)cn1 [Compound 10, (S)-3-Ethyl-4-(1'-methyl-4'-imidazolyl)methyl-2-oxazolidinone]",–
–,–,–,–,CC[C@@H]1C(=O)OC[C@@H]1Cc1cncn1C [pilocarpine],duration of biological activity (in words) ([1]; due to hydrolytic cleavage of the lactone ring and/or epimerization): short duration of biological activity; side effects on administration for long periods (in words) ([3]; administered for long periods): without side effects; effect on intraocular pressure (in words) ([3]; narrow and wide angle glaucoma): decreases the intraocular pressure; duration of intraocular pressure lowering ([3]; topical miotic): about three
–,–,–,–,CC[C@@H]1C(=O)OC[C@@H]1Cc1cnc[nH]1 [pilocarpidine],activity of pilocarpine analogues (in words) [1]: less active
–,–,–,inactive,"CCN1C(=O)OC[C@@H]1Cc1cn(Cc2ccccc2)cn1 [Compound 6, (S)-3-Ethyl-4-(1,'-benzyl-4'-imidazolyl)methyl-2-oxazolidinone]",–
–,–,–,–,CC[C@H]1C(=O)OC[C@@H]1Cc1cncn1C [isopilocarpine],pharmacological activity (in words) [1]: essentially pharacologically inactive
180 µM,less active,cholinergic muscarinic agonists,weaker muscarinic agonists,"CCN1C(=O)OC[C@@H]1Cc1c[nH]cn1 [Compound 9, (S)-3-Ethyl-4-(4'-imidazolyl)methyl-2-oxazolidinone]",–
–,–,–,inactive,CCN1C(=O)OC[C@@H]1Cc1c[n+](Cc2ccccc2)cn1C [Compound 7],–
